In patent US4264729A, “Method and reagent for detecting cancerigenic and anticancerous substances” (priority 1978, dated 1981):

Assays:
[1] = test system: DNA C (matricial DNA separated from cancerous tissues); assay: synthesis in vitro of DNA on a matrix of cancerous DNA (DNA C) with DNA-polymerase, radioactive acidoprecipitable DNA measured; assay type: biochemical; settings: for replication of DNA-C (amount of radioactive DNA 3H synthetised): as a function of the amount of substance in the reactional medium (0 to 100 μg in 0.15 ml), 10 minutes at 36° C., FIG. 1, 3, 4; for replication of DNA-C separated from cancerous breast tissues: breast tissue DNA, FIG. 6; for replication of DNA taken on cancerous tissues such as lung or liver tissues: lung or liver tissue DNA
Text: (§1) According to the invention, there is provided a method in which there is observed, in measuring the radioactive acidoprecipitable DNA, the synthesis of DNA on a matrix of DNA separated from sound tissues on the one hand, and on a matrix of DNA separated from cancerous tissues on the other hand, in a medium comprising four desoxyribonucleoside-5'-triphosphates, one of which is radioactive, and one enzyme DNA-polymerase, with the substance to be tested and without it.
(§2) For carrying into effect the test, which in itself is very short, it is necessary to hold several preparations, previously and carefully proven, of matricial DNA separated from sound tissues (check tissue, hereinafter referenced to as DNA T) and of matricial DNA separated from cancerous tissues (hereinafter referenced to as DNA C).
The DNA C preparations are obtained by using as raw material various cancerous tissues or tumours taken on a human or animal organ, such as breast, lung, ovary, neuro-carcinome, ascites, etc. It is also possible to use cultures of cancerous cells such as KB or Hela cells, etc.
(§3) For each test, it is necessary to hold at least four couples of matricial DNA of different origins, each couple being formed by an DNA T preparation and an DNA C preparation originating from the same organ, of the same animal kind. For example, there is used at least four couples selected among the following: DNA T and DNA C separated from lung tissue; DNA T and DNA C separated from breast tissue; DNA T and DNA C separated from ovary tissue; DNA T of primary cells of monkey kidney (RS), or of "Vero" cells, or of "SIRC" cells in culture and DNA C of KB cells or Hela cells, or L cells in culture.
(§4) For separating DNA, either from sound tissues or from cancerous tissues, there is used a modified conventional method of separation and purification (J. Narmur, J. Mol. Biol. 3 208, 1961). When a cancerous tissue or a tumour is used, the neighbouring sound or questionable tissues must first be discarded, and reciprocally, the sound tissues must be free from any questionable tissues.
(§5) Immediately after exeresis, the tissue is either frozen at -20° C., or finely crushed in a kneading machine, in the presence of a buffer 2 SSC (containing 17.4 g of NaCl and 10.7 g of trisodic citrate for 1 liter of sterile distilled water) in a sterile aqueous solution (1 to 3 ml of buffer according to the volume of tissue) and of a final concentration of 0.2% in laurylsulphate (by adding an aqueous mother solution of laurylsulphate at 20%).
(§6) In order to get rid of the proteins and to keep the DNA, several extractions are made in the presence of buffer 2 SSC and phenol (solution containing 10% of water), followed by extractions with chloroform and by centrifugations according to the conventional technique of separation and purification of DNA. The DNA present in the aqueous phases is precipitated in 96° alcohol, picked up with a glass rod, solved in a little volume of 1 SSC, then treated by the pancreatic ribonucleases and T1, what requires a whole supplementary cycle of repurification with phenol, then with chloroform. The DNA is dialysed against a solution of 2 SSC (24 hours at 4° C.), dosed by absorption in ultraviolet and stored frozen at -20° C., several months if necessary. Before use, the DNA is once more dialysed during several hours against sterile distilled water.
(§7) The DNA is characterized by its absorbance in ultraviolet at 260 nm and 280 nm. The typical ratio 260/280 varies from 2.0 to 2.1 according to the preparation. The content of the ARN in proteins varies from 0.3 to 0.6% and the content in polyribonucleotids having resisted the action of nucleases and contaminating the DNA is between 1 and 3%. The RNA (ribonucleic acid) can be eliminated by degradation by KOH 0.3 M (final concentration) during 16 hours at 36° C., and the DNA is then dialysed and stored as hereinabove mentioned. […]

[2] = test system: DNA T (matricial DNA separated from sound tissues); assay: synthesis in vitro of DNA on a matrix of check DNA (DNA T) with DNA-polymerase, radioactive acidoprecipitable DNA measured; assay type: biochemical; settings: for replication of DNA-T (amount of radioactive DNA 3H synthetised): as a function of the amount of substance in the reactional medium (0 to 100 μg in 0.15 ml), 10 minutes at 36° C., FIG. 1, 3, 4; for replication of DNA-T separated from sound breast tissues: breast tissue DNA, FIG. 6; for replication of DNA taken on check tissues such as lung or liver tissues: lung or liver tissue DNA
Text: as §1, §2
The preparations of DNA T are obtained in the same manner by using as raw material sound tissues separated from various human or animal organs, or from sound cells cultivated "in vitro" in a suitable medium.
as §3, §4, §5, §6, §7

[3] = between 0,005 and 0,01 ml of acridine orange (0.1 mg/ml) in the medium, FIG. 2

Row | Structure (SMILES) | replication of DNA-C (amount of radioactive DNA 3H synthetised) [1] | replication of DNA-T (amount of radioactive DNA 3H synthetised) [2] | replication of DNA-C separated from cancerous breast tissues [1] | replication of DNA taken on cancerous tissues such as lung or liver tissues [1] | replication of DNA-T separated from sound breast tissues [2] | replication of DNA taken on check tissues such as lung or liver tissues [2] | also measured
1 | c1cc[n+]2c(c1)-c1cccc[n+]1CC2 [Diquat, ethylene-1,1-bipyridilium-2,2-dibromid] | inhibition non selective | inhibition non selective |  |  |  |  | 
2 | O=C(O)c1cccnc1 [Nicotinic acid] | neutral | neutral |  |  |  |  | 
3 | CN(C)c1ccc2cc3ccc(N(C)C)cc3nc2c1 [acridine orange] |  |  |  |  |  |  | replication of DNA-C ([1]; 0.005 ml acridine orange (0.1 mg/ml) in the medium, compared with DNA-T, FIG. 2): stimulation of DNA-C replication is clearly stronger than that of DNA-T; synthesis of DNA-C [1, 3]: slows down the synthesis; replication of cancerous DNA ([1]; high concentrations): toxic and inhibit; synthesis of DNA-T [2, 3]: slows down the synthesis; replication of check DNA ([2]; high concentrations): toxic and inhibit
4 | C[C@]12CC[C@@H]3c4ccc(O)cc4CC[C@H]3[C@@H]1CC[C@@H]2O [estradiol] |  |  | very strongly | no effect | stimulate weakly | no effect | 
5 | C[C@]12CC[C@@H]3c4ccc(O)cc4CC[C@H]3[C@@H]1CCC2=O [estrone] |  |  | very strongly | no effect | stimulate weakly | no effect | 
6 | C1CNCCN1 [piperazine] | neutral | neutral |  |  |  |  | 
